Bounds are passed on as bounds.

This test relates to Canis familiaris. The experiment in a line: The compound was tested for its antihypertensive activity in dogs after intravenous injection. Format: functional, Canis lupus familiaris.
In turn, `CC(N/C(=N\C#N)Nc1ccncc1)C(C)(C)C` (centres undefined) [PINACIDIL ANHYDROUS] returned a Relative activity of 1. The value for `CCC(C)(C)N/C(=C\C#N)Nc1cc(Cl)cc(C#N)c1` was less than 0.3; that for `CC(N/C(=C\[N+](=O)[O-])Nc1ccccc1)C(C)(C)C` (centres undefined) was 1.82; that for `CCC(C)(C)/N=C(\NC#N)Nc1cc(Cl)cc(C#N)c1` was 2.04.
